Results published in patent US11160871B2, “SSTR-targeted conjugates and particles and formulations thereof” (TARVEDA THERAPEUTICS, INC., priority 2015, dated 2021).
Read-outs that look alike come from different tables or passages of the source. Starred links: 1 amine or outer side, 2 acyl side, 3 side chain; linkers in the order of their positions; H or OH if unused. Positions of bridges follow the written chain, without caps; N, C: chain ends. Non-standard residues stand in square brackets, D forms with d. Residues, ends and D or L forms follow the SMILES beside them. *: point of attachment. X1 = COc1cc2cc(c1Cl)N(C)C(=O)C[C@H](OC(=O)[C@H](C)N(C)C(=O)CCS*)[C@]1(C)O[C@H]1[C@H](C)[C@@H]1C[C@@](O)(NC(=O)O1)[C@H](OC)/C=C/C=C(\C)C2; N(3-sulfanylpropyl)dPhe = O=C([C@@H](Cc1ccccc1)N(CCCS[*:3])[*:1])[*:2]

Legend:
NCI-H69 SCLC tumors = assay: H69 tumor DM-1 levels by LC/MS-MS; assay type: in vivo, mice; settings: 1 mg/kg; 24 hour time point
Description: (§1) To examine the ability of conjugates of the present invention to accumulate in tumors, a murine cancer model was used. All mice were treated in accordance with the OLAW Public Health Service Policy on Human Care and Use of Laboratory Animals and the ILAR Guide for the Care and Use of Laboratory Animals. All in vivo studies were conducted following the protocols approved by the Blend Therapeutics Institutional Animal Care and Use Committee. Animals were inoculated with 2.5×10^6 NCI-H69 SCLC (small cell lung cancer) cells in 1:1 RPMI 1640 (Invitrogen, Carlsbad, Calif.)/Matrigel® (BD Biosciences, San Jose, Calif.) via subcutaneous injection to the right flank. Tumors were allowed to reach an approximate volume of ˜500 mm3. Animals were then randomized into treatment groups of 3 animals per time point and were dosed at 1 mg/kg (10% propylene glycol in water for injection for free conjugates, or 10% sucrose for nanoparticles), or 0.4 mg/kg for DM-1 (10% propylene glycol in water for injection). The 24 hour time point was used as a benchmark across conjugates.
(§2) Tumor DM-1 levels were determined by liquid chromatography mass spectrometry (LC/MS-MS). Four volumes of 5 mM 6-maleimidohexanoic acid to 1 part tumor v/w was added and homogenized for about 10-15 seconds with a handheld homogenizer. 10 μL of 500 mM Tris(2-carboxyethyl)phosphine was added to 100 uL of tumor homogenate, mixed well and incubated at room temperature for about 5-15 min. 200-300 uL of acetonitrile was used to precipitate proteins in tumor homogenate, samples were centrifuged for 5 min, and supernatant was injected onto LC/MS-MS system for DM-1 analysis.

SSTR1 = SSTR1 (Homo sapiens, UniProt P30872); settings: read-out: Octreoscan Ki; cited from earlier work
Chain of SSTR1 (P30872 whole entry): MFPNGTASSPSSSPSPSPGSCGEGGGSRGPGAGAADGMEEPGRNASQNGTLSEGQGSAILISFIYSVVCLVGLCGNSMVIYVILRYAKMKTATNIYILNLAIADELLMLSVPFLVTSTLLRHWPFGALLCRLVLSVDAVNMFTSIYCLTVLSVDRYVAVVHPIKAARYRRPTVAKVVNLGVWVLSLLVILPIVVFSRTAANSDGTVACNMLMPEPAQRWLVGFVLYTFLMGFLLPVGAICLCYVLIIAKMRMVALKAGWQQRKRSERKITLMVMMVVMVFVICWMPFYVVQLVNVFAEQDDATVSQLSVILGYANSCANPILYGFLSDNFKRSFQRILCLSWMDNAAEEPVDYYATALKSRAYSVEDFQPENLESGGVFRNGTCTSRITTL

SSTR3 = SSTR3 (Homo sapiens, UniProt P32745); settings: read-out: Octreoscan Ki; cited from earlier work
Chain of SSTR3 (P32745 whole entry): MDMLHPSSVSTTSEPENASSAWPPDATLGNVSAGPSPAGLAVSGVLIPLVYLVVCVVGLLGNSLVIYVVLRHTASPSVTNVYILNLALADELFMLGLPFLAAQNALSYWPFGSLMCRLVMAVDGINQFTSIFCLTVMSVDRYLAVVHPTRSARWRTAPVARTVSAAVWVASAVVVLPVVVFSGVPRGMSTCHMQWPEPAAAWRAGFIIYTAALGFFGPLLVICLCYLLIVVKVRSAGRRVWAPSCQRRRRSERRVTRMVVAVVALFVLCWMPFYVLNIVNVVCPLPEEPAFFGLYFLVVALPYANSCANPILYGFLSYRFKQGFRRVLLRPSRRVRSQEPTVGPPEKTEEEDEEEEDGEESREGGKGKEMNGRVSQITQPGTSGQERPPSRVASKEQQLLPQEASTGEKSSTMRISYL

SSTR2 = SSTR2 (Homo sapiens, UniProt P30874); design: expressed in transfected cells; settings: read-out: Octreoscan Ki; cited from earlier work
Chain of SSTR2 (P30874 whole entry): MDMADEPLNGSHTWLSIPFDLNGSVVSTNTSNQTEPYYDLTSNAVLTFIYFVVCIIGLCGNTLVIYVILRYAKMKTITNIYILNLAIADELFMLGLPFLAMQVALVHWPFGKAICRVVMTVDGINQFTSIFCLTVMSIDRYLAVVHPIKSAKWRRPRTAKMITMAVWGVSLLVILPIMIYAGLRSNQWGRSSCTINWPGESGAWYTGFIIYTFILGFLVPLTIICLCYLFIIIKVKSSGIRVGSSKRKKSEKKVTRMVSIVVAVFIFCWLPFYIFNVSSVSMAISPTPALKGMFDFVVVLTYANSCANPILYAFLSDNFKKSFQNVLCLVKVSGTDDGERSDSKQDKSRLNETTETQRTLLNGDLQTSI

SSTR5 = SSTR5 (Homo sapiens, UniProt P35346); settings: read-out: Octreoscan Ki; cited from earlier work
Chain of SSTR5 (P35346 whole entry): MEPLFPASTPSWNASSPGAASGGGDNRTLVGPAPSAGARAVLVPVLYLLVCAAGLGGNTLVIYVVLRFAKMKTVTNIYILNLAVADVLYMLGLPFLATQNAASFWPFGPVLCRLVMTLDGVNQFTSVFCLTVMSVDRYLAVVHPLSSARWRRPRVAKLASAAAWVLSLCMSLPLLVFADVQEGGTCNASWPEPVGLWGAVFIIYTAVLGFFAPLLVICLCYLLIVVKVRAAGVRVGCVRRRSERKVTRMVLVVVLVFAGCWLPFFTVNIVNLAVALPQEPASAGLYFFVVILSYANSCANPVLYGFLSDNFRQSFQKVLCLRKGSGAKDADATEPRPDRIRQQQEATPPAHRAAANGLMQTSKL

SSTR4 = SSTR4 (Homo sapiens, UniProt P31391); settings: read-out: Octreoscan Ki; cited from earlier work
Chain of SSTR4 (P31391 whole entry): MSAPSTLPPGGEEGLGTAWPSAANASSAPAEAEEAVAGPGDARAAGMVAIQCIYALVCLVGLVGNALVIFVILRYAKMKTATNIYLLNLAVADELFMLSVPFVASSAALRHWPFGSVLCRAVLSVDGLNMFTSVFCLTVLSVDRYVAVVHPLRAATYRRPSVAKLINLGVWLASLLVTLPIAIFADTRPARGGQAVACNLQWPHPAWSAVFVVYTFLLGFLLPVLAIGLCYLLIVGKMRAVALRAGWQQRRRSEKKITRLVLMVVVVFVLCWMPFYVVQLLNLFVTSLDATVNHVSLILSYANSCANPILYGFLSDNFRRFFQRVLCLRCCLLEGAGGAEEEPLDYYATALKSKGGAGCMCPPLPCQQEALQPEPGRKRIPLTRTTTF

[1] = test system: NCI-H524 human small cell lung cancer cells; assay: cells; assay type: cell-based
Description: Conjugates of the present invention were assessed in an in vitro assay evaluating inhibition of cell proliferation. NCI-H524 (ATCC) human small cell lung cancer cells were plated in 96 well, V-bottomed plates (Costar) at a concentration of 5,000 cells/well. 24 hours later, cells were treated with either conjugate for 2 hours and further incubated 70 hours, or for octreotide competition experiments, treated with 100 μM octreotide for 30 min, and then treated with conjugate for 2 hours, and further incubated for 70 hours. Conjugate starting dose was 20 μM and three fold serial dilutions were done for a total of ten points. After 2 hours of treatment, cells were spun down, the drug containing media was removed, and fresh complete medium was added and used to resuspend the cells, which were spun again. After removal of the wash media, the cells were resuspended in complete medium, and then transferred into white walled, flat bottomed 96 well plates. […] Proliferation was measured using CellTiter Glo reagent using the standard protocol (Promega) and a Glomax multi+ detection system (Promega). Percent proliferation inhibition was calculated using the following formula: % inhibition=(control−treatment)/control*100. Control is defined as vehicle alone. IC50 curves were generated using the nonlinear regression analysis (four parameter) with GraphPad Prism 6.

[2] = Single dose exploratory toxicity study; assay type: in vivo, SD female rat; settings: 0.4 mg/kg
Description: Single dose exploratory toxicity studies in SD female rat (dose 0.5 mg/kg to 1.5 mg/kg) for 7-10 days were carried out. Clinical observations, body weight, clinical blood chemistry, histopathology, and complete blood counts were assessed. In the 10-day study, DM1 (0.4 mg/kg) was compared to Conjugate 57 at an equivalent dose of DM1 (1.0 mg/kg of conjugate) and at a 50% higher dose (1.5 mg/kg of conjugate).
Decreased white blood cell (WBC) count is a known dose limiting toxicity of DM1. WBC count was tracked in all groups.
Liver toxicity is also a know dose limiting toxicity of DM1. Alanine transaminase (ALT) and aspartate aminotransferase (AST) are markers of liver toxicity and were measured in all groups.

[3] = H69 tumor DM-1 levels by LC/MS-MS; assay type: in vivo, mice; settings: mouse, tumor (NCI-H69 SCLC xenograft); 0.4 mg/kg for DM-1; 24 hour time point
Description: as §1, §2

## COc1cc2cc(c1Cl)N(C)C(=O)C[C@H](OC(=O)[C@H](C)N(C)C(=O)CCSSCCNC(=O)CC[C@H]1C(=O)N[C@@H](Cc3ccc(O)cc3)C(=O)N[C@H](Cc3c[nH]c4ccccc34)C(=O)N[C@@H](CCCCN)C(=O)N[C@@H]([C@@H](C)O)C(=O)N[C@@H](Cc3ccccc3)C(=O)N1C)[C@]1(C)O[C@H]1[C@H](C)[C@@H]1C[C@@](O)(NC(=O)O1)[C@H](OC)/C=C/C=C(\C)C2 [Conjugate 14]
NCI-H69 SCLC tumors
  H69 tumor DM-1 levels: 70.1 nM

## COc1cc2cc(c1Cl)N(C)C(=O)C[C@H](OC(=O)[C@H](C)N(C)C(=O)CCSSCCOc1ccc(C[C@@H](N)C(=O)N[C@H]3CSSC[C@@H](C(=O)N[C@H](C(=O)O)[C@@H](C)O)NC(=O)[C@H]([C@@H](C)O)NC(=O)[C@H](CCCCN)NC(=O)[C@@H](Cc4c[nH]c5ccccc45)NC(=O)[C@H](Cc4ccc(O)cc4)NC3=O)cc1)[C@]1(C)O[C@H]1[C@H](C)[C@@H]1C[C@@](O)(NC(=O)O1)[C@H](OC)/C=C/C=C(\C)C2 [Conjugate 111]
NCI-H69 SCLC tumors
  H69 tumor DM-1 levels: 82.6 nM

## Indium-111 pentetreotide [Octreoscan]
SSTR1
  Ki: > 10000 nM
SSTR3
  Ki: 182 nM
SSTR2
  Ki: 22 nM
SSTR5
  Ki: 237 nM
SSTR4
  Ki: > 1000 nM

## COc1cc2cc(c1Cl)N(C)C(=O)C[C@H](OC(=O)C(C)N(C)C(=O)CCSSCCC(=O)NCCCOCCOCCOCCCNC(=O)CC[C@H]1C(=O)N[C@@H](Cc3ccc(O)cc3)C(=O)N[C@H](Cc3c[nH]c4ccccc34)C(=O)N[C@@H](CCCCN)C(=O)N[C@@H]([C@@H](C)O)C(=O)N[C@@H](Cc3ccccc3)C(=O)N1C)[C@]1(C)O[C@H]1[C@H](C)[C@@H]1C[C@@](O)(NC(=O)O1)[C@H](OC)/C=C/C=C(\C)C2 (stereo partly shown) [Conjugate 18]
[1]; 2 hours treatment, 70 hours further incubation, read-out: H524 IC50
  IC50: 1480 nM
[1]; read-out: H524 IC50+ 100 uM octreotide, 100 μM octreotide for 30 min before conjugate
  IC50: 2160 nM
NCI-H69 SCLC tumors
  H69 tumor DM-1 levels: 86.3 nM

## COc1cc2cc(c1Cl)N(C)C(=O)C[C@H](OC(=O)[C@H](C)N(C)C(=O)CCS)C1(C)O[C@H]1[C@H](C)[C@@H]1C[C@@](O)(NC(=O)O1)[C@H](OC)/C=C/C=C(\C)C2 (stereo partly shown) [DM-1, mertansine, reference compound]
[1]; Homo sapiens, NCI-H524, read-out: H524 IC50 (nM)
  IC50: 90 nM
[1]; Homo sapiens, NCI-H524, read-out: H524 IC50+ 100 uM octreotide (nM)
  IC50: 90 nM
[2]
  AST and ALT: dramatic increases in AST and ALT at day 5
  Day 5 weight change (%): −18%
  WBC count: dramatic decreases in WBC count
  clinical outcome: had to be euthanized on day 5 because they were moribund
[3]
  concentration at 24 h: 31.6 nM

## COc1cc2cc(c1Cl)N(C)C(=O)C[C@H](OC(=O)[C@H](C)N(C)C(=O)CCSSCCCN[C@H](Cc1ccccc1)C(=O)N[C@H]1CSSC[C@@H](C(=O)N[C@@H](Cc3c[nH]c4ccccc34)C(N)=O)NC(=O)[C@H](C(C)C)NC(=O)[C@H](CCCCN)NC(=O)[C@@H](Cc3c[nH]c4ccccc34)NC(=O)[C@H](Cc3ccc(O)cc3)NC1=O)[C@]1(C)O[C@H]1[C@H](C)[C@@H]1C[C@@](O)(NC(=O)O1)[C@H](OC)/C=C/C=C(\C)C2 [Conjugate 78] (H-[N(3-sulfanylpropyl)dPhe](X1)CY[dW]KVCW-NH2; disulfide 2-7)
NCI-H69 SCLC tumors
  H69 tumor DM-1 levels: 36.2 nM

## COc1cc2cc(c1Cl)N(C)C(=O)C[C@H](OC(=O)[C@H](C)N(C)C(=O)CCSSCCCN[C@H](Cc1ccccc1)C(=O)N[C@H]1CSSC[C@@H](C(=O)N[C@H](CO)[C@@H](C)O)NC(=O)[C@H]([C@@H](C)O)NC(=O)[C@H](CCCCN)NC(=O)[C@@H](Cc3c[nH]c4ccccc34)NC(=O)[C@H](Cc3ccccc3)NC1=O)[C@]1(C)O[C@H]1[C@H](C)[C@@H]1C[C@@](O)(NC(=O)O1)[C@H](OC)/C=C/C=C(\C)C2 [Conjugate 76]
NCI-H69 SCLC tumors
  H69 tumor DM-1 levels: 62.2 nM

## COc1cc2cc(c1Cl)N(C)C(=O)C[C@H](OC(=O)[C@H](C)N(C)C(=O)CCSSCCCN[C@H](Cc1ccccc1)C(=O)N[C@H]1CSSC[C@@H](C(=O)N[C@H](C(=O)O)[C@@H](C)O)NC(=O)[C@H]([C@@H](C)O)NC(=O)[C@H](CCCCN)NC(=O)[C@@H](Cc3c[nH]c4ccccc34)NC(=O)[C@H](Cc3ccc(O)cc3)NC1=O)[C@]1(C)O[C@H]1[C@H](C)[C@@H]1C[C@@](O)(NC(=O)O1)[C@H](OC)/C=C/C=C(\C)C2 [Conjugate 80]
NCI-H69 SCLC tumors
  H69 tumor DM-1 levels: 91.2 nM

## COc1cc2cc(c1Cl)N(C)C(=O)C[C@H](OC(=O)[C@H](C)N(C)C(=O)CCSSC[C@H](NC(=O)CC[C@H]1C(=O)N[C@@H](Cc3ccc(O)cc3)C(=O)N[C@H](Cc3c[nH]c4ccccc34)C(=O)N[C@@H](CCCCN)C(=O)N[C@@H]([C@@H](C)O)C(=O)N[C@@H](Cc3ccccc3)C(=O)N1C)C(=O)NC(C)(C)CC(C)(C)C)[C@]1(C)O[C@H]1[C@H](C)[C@@H]1C[C@@](O)(NC(=O)O1)[C@H](OC)/C=C/C=C(\C)C2 [Conjugate 16]
NCI-H69 SCLC tumors
  H69 tumor DM-1 levels: 96.4 nM

## COc1cc2cc(c1Cl)N(C)C(=O)C[C@H](OC(=O)[C@H](C)N(C)C(=O)CCSSCCC(=O)NCCCC[C@H]1C(=O)N[C@@H](Cc3ccc(O)cc3)C(=O)N[C@H](Cc3c[nH]c4ccccc34)C(=O)N[C@@H](CCCCN)C(=O)N[C@@H]([C@@H](C)O)C(=O)N[C@@H](Cc3ccccc3)C(=O)N1C)[C@]1(C)O[C@H]1[C@H](C)[C@@H]1C[C@@](O)(NC(=O)O1)[C@H](OC)/C=C/C=C(\C)C2 [Conjugate 10]
NCI-H69 SCLC tumors
  H69 tumor DM-1 levels: 72.1 nM

## COc1cc2cc(c1Cl)N(C)C(=O)C[C@H](OC(=O)[C@H](C)N(C)C(=O)CCSSCCC(=O)NCc1ccc(C[C@@H](N)C(=O)N[C@H]3CSSC[C@@H](C(=O)N[C@H](C(=O)O)[C@@H](C)O)NC(=O)[C@H]([C@@H](C)O)NC(=O)[C@H](CCCCN)NC(=O)[C@@H](Cc4c[nH]c5ccccc45)NC(=O)[C@H](Cc4ccc(O)cc4)NC3=O)cc1)[C@]1(C)O[C@H]1[C@H](C)[C@@H]1C[C@@](O)(NC(=O)O1)[C@H](OC)/C=C/C=C(\C)C2 [Conjugate 115]
NCI-H69 SCLC tumors
  H69 tumor DM-1 levels: 37.1 nM

## COc1cc2cc(c1Cl)N(C)C(=O)C[C@H](OC(=O)[C@H](C)N(C)C(=O)CCSSCCNC(=O)[C@@H](NC(=O)[C@@H]1CSSC[C@H](NC(=O)[C@H](N)Cc3ccccc3)C(=O)N[C@@H](Cc3ccc(O)cc3)C(=O)N[C@H](Cc3c[nH]c4ccccc34)C(=O)N[C@@H](CCCCN)C(=O)N[C@@H]([C@@H](C)O)C(=O)N1)[C@@H](C)O)[C@]1(C)O[C@H]1[C@H](C)[C@@H]1C[C@@](O)(NC(=O)O1)[C@H](OC)/C=C/C=C(\C)C2 [Conjugate 35]
NCI-H69 SCLC tumors
  H69 tumor DM-1 levels: 23.2 nM

## CCCCCCCCN[C@H](Cc1ccccc1)C(=O)N[C@H]1CSSC[C@@H](C(=O)N[C@H](C(=O)NCCSSCCC(=O)N(C)[C@@H](C)C(=O)O[C@H]2CC(=O)N(C)c3cc(cc(OC)c3Cl)C/C(C)=C/C=C/[C@@H](OC)[C@@]3(O)C[C@H](OC(=O)N3)[C@@H](C)[C@@H]3O[C@@]23C)[C@@H](C)O)NC(=O)[C@H]([C@@H](C)O)NC(=O)[C@H](CCCCN)NC(=O)[C@@H](Cc2c[nH]c3ccccc23)NC(=O)[C@H](Cc2ccc(O)cc2)NC1=O [Conjugate 55]
NCI-H69 SCLC tumors
  H69 tumor DM-1 levels: 95.3 nM
